Measurements taken from patent US6214537A, “Synthetic peptides and mixtures thereof for detecting HIV antibodies” (Biochem Immunosystems, Inc., priority 1988, dated 2001).
Positions of bridges follow the written chain, without caps; N, C: chain ends. Residues, ends and D or L forms follow the SMILES beside them.

Assays:
[1] = tested on: antibodies specific to HIV-1; experiment: ELISA serum titers, plates coated with cyclic 87c versus linear 87; format: binding, human
Text: (§1) Even though results presented in TABLE 5 clearly show the superiority of cyclic peptides over their linear counterpart in detecting HIV-1-antibodies, that increased sensitivity could have been underestimated because of probable cyclization and polymerization of the linear peptide after solubilization in a carbonate buffer (pH 9.6). That experiment was repeated with the linear 87 and cyclic 87c peptides dissolved in a carbonate buffer (pH 9.6) as before and also in 10% acetic acid (pH 2.7). […] It is believed that cydization and polymerization also occured in the wells of the microtiter plates although the exact proportion of cyclic peptide bound to the plates versus linear has not been as yet determined.
(§2) Plates used in this experiment were coated with solutions of peptides at 10 μg/ml. (Experimental results of TABLE 5 were obtained with plates coated with peptides at 0,5 μg/ml). Four different HIV-1 positive serum samples were serially diluted and their titers determined. The titer was defined as the serum dilution giving an absorbancy reading of 1:0 in the conditions of the ELISA procedure already described.
The ratios of sensitivities measured with the cyclic peptide over the linear 87 peptide vary between 1:3 and 2:2 with an average of 1:8. These ratios are even larger, varying from 3:0 to 4:5, when the sensitivity of the ELISA test using the cyclic 87c peptide is compared using conditions (acidic pH) where the linear 87 peptide remains linear and is not allowed to cyclize or polymerize.

HIV-1 antibodies [2] = experiment: ELISA plates coated with cyclic 87c versus linear 87 or polymers of 87: sensitivity and background; format: binding, human
[3] = State of peptide in coating solution (HPLC, Ellman's test); format: physicochemical; conditions: 10% acetic acid (pH 2.7)
Text: as §1

HIV-1-antibodies = experiment: ELISA, cyclic versus non-cyclic peptides, sera at various dilutions; format: binding, human
Protocol: TABLE 5 is provided to illustrate the sensitivity of cyclic versus noncyclic peptides in the ELISA test by comparing the results of some sera at various dilutions.
as §2
Each well of the microtiter plate is saturated with 100 μl of a solution containing a peptide or mixture of peptides (5 μg/ml) and left overnight. The wells are emptied and washed twice with a washing buffer (Tris, 0.043M; NaCl, 0.5M;thimerosal, 0.01% w/v; Tween 20, 0.05% v/v; pH 7.4). The wells are then saturated with 0.35 ml of washing buffer for 1 hr. at 37° C. and washed once with the same buffer. Serum samples to be analyzed are diluted with specimen buffer (washing buffer plus casein, 0.05% w/v). The wells are rinsed with washing buffer prior to the addition of the diluted serum sample (0.1 ml). These are left to incubate for 1 hr. at room temperature. The wells are then emptied, washed twice rapidly and then once for two minutes with washing buffer. […] The wells are then emptied and washed twice rapidly with washing buffer and then five times in which the buffer was in contact with the well 2 minutes per washing.
The substrate solution (3,3', 5,5'-tetramethylbenzidine, 8 mg per ml of DMSO) is diluted with 100 volumes 0.1M citrate-acetate buffer, pH 5.6 containing 0.1% v/v of 30% H2 O2 and added to each well (0.1 ml per well). After 10 minutes the contents of each well is treated with 0.1 ml 2N H2 SO4 and the optical density read at 450 nm. All determinations are done in duplicate.

HIV-1 antibodies [4] = experiment: ELISA, single peptides identifying HIV-1 positive sera; format: binding, human; conditions: ELISA, single peptide

For `CC[C@H](C)[C@H](NC(=O)CNC(=O)[C@H](CC(C)C)NC(=O)[C@H](CC(C)C)NC(=O)[C@H](CCC(N)=O)NC(=O)[C@H](CCC(N)=O)NC(=O)[C@H](CC(=O)O)NC(=O)[C@H](CCCCN)NC(=O)[C@H](CC(C)C)NC(=O)[C@H](Cc1ccc(O)cc1)NC(=O)[C@H](CCCNC(=N)N)NC(=O)[C@H](CCC(=O)O)NC(=O)[C@@H](NC(=O)[C@H](C)NC(=O)[C@H](CC(C)C)NC(=O)[C@@H](NC(=O)[C@@H](N)CCCNC(=N)N)[C@@H](C)CC)C(C)C)C(=O)N[C@@H](Cc1c[nH]c2ccccc12)C(=O)NCC(=O)N[C@H]1CSSC[C@@H](C(=O)N[C@H](C(=O)N[C@H](C(=O)N[C@@H](C)C(=O)N[C@H](C(=O)N2CCC[C@H]2C(=O)N[C@@H](Cc2c[nH]c3ccccc23)C(=O)N[C@@H](CC(N)=O)C(=O)N[C@@H](C)C(=O)N[C@@H](CO)C(=O)O)C(C)C)[C@@H](C)O)[C@@H](C)O)NC(=O)[C@H]([C@@H](C)CC)NC(=O)[C@H](CC(C)C)NC(=O)[C@H](CCCCN)NC(=O)CNC(=O)[C@H](CO)NC1=O` [Peptide 87c] (H-RILAVERYLKDQQLLGIWGCSGKLICTTAVPWNAS-OH; disulfide 20-26), the “titer ratio A/B (87c cyclic / 87 linear)” value ([1]; 10% Acetic Acid (pH 2.7), serum M-5) was 3.0, the “titer ratio A/B (87c cyclic / 87 linear)” value ([1]; 10% Acetic Acid (pH 2.7), serum M-7) was 3.9 and the “titer ratio A/B (87c cyclic / 87 linear)” value ([1]; 10% Acetic Acid (pH 2.7), serum M-8) was 4.5. The “titer ratio A/B (87c cyclic / 87 linear)” value ([1]; 10% Acetic Acid (pH 2.7), serum M-16) was 3.7, the “titer ratio A/B (87c cyclic / 87 linear)” value ([1]; Carbonate Bicarbonate 0.1M (pH 9.6), serum M-5) was 1.3 and the “titer ratio A/B (87c cyclic / 87 linear)” value ([1]; Carbonate Bicarbonate 0.1M (pH 9.6), serum M-7) was 1.8. The “titer ratio A/B (87c cyclic / 87 linear)” value ([1]; Carbonate Bicarbonate 0.1M (pH 9.6), serum M-8) was 2.2, the “titer ratio A/B (87c cyclic / 87 linear)” value ([1]; Carbonate Bicarbonate 0.1M (pH 9.6), serum M-16) was 1.7 and the serum titer ([1]; coating buffer 10% Acetic Acid (pH 2.7), serum M-5, coated at 10 μg/ml) was 13500. The serum titer ([1]; coating buffer 10% Acetic Acid (pH 2.7), serum M-7, coated at 10 μg/ml) was 9000, the serum titer ([1]; coating buffer 10% Acetic Acid (pH 2.7), serum M-8, coated at 10 μg/ml) was 6300 and the serum titer ([1]; coating buffer 10% Acetic Acid (pH 2.7), serum M-16, coated at 10 μg/ml) was 56000. It also gave a serum titer ([1]; coating buffer Carbonate Bicarbonate 0.1M (pH 9.6), serum M-5, coated at 10 μg/ml) of 13500, a serum titer ([1]; coating buffer Carbonate Bicarbonate 0.1M (pH 9.6), serum M-7, coated at 10 μg/ml) of 11000 and a serum titer ([1]; coating buffer Carbonate Bicarbonate 0.1M (pH 9.6), serum M-8, coated at 10 μg/ml) of 6500. For the same compound, the serum titer ([1]; coating buffer Carbonate Bicarbonate 0.1M (pH 9.6), serum M-16, coated at 10 μg/ml) was 56000, the “sensitivity in detecting HIV-1 antibodies compared with plates coated with pool of fractions containing only polymers of peptide 87” value (HIV-1 antibodies [2]) was “superiority” and the “state of peptide in solution (HPLC, Ellman's test)” value [3] was “remained cyclic”. For the same compound, the ELISA optical density (HIV-1-antibodies; serum 87V103, dilution 1/50) was 0.011 optical density units, the ELISA optical density (HIV-1-antibodies; serum 1428, dilution 1/50) was greater than 2.0 optical density units and the ELISA optical density (HIV-1-antibodies; serum M-5, dilution 1/50) was greater than 2.0 optical density units. For the same compound, the ELISA optical density (HIV-1-antibodies; serum M-5, dilution 1/100) was greater than 2.0 optical density units, the ELISA optical density (HIV-1-antibodies; serum M-5, dilution 1/200) was greater than 2.0 optical density units and the ELISA optical density (HIV-1-antibodies; serum M-5, dilution 1/400) was greater than 2.0 optical density units. It also gave an ELISA optical density (HIV-1-antibodies; serum M-5, dilution 1/800) of 1.854 optical density units, an ELISA optical density (HIV-1-antibodies; serum M-7, dilution 1/50) greater than 2.0 optical density units and an ELISA optical density (HIV-1-antibodies; serum M-7, dilution 1/100) greater than 2.0 optical density units. It also gave an ELISA optical density (HIV-1-antibodies; serum M-7, dilution 1/200) of 1.729 optical density units, an ELISA optical density (HIV-1-antibodies; serum M-7, dilution 1/400) of 1.348 optical density units and an ELISA optical density (HIV-1-antibodies; serum M-7, dilution 1/800) of 0.611 optical density units. It also gave an ELISA optical density (HIV-1-antibodies; serum M-8, dilution 1/50) greater than 2.0 optical density units, an ELISA optical density (HIV-1-antibodies; serum M-8, dilution 1/100) greater than 2.0 optical density units and an ELISA optical density (HIV-1-antibodies; serum M-8, dilution 1/200) of 1.655 optical density units. For the same compound, the ELISA optical density (HIV-1-antibodies; serum M-8, dilution 1/400) was 1.064 optical density units, the ELISA optical density (HIV-1-antibodies; serum M-8, dilution 1/800) was 0.384 optical density units and the ELISA optical density (HIV-1-antibodies; serum M-16, dilution 1/50) was greater than 2.0 optical density units. For the same compound, the ELISA optical density (HIV-1-antibodies; serum M-16, dilution 1/100) was greater than 2.0 optical density units, the ELISA optical density (HIV-1-antibodies; serum M-16, dilution 1/200) was greater than 2.0 optical density units and the ELISA optical density (HIV-1-antibodies; serum M-16, dilution 1/400) was greater than 2.0 optical density units. The ELISA optical density (HIV-1-antibodies; serum M-16, dilution 1/800) was 1.962 optical density units and the “% Positive Sera correctly Identified” value (HIV-1 antibodies [4]) was 99%.
